Reference: PubChem BioAssay (NCI)
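How tested: cells in 96-well plates exposed to compound for 48 hours at five concentrations. GI50: concentration for 50% inhibition of growth. TGI: total growth inhibition.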

Tests used:
Experiment in all cases: NCI tumour cell line growth inhibition, 48 h
786-0 renal = system: 786-0 renal
A498 renal = system: A498 renal
A549 NSCLC = system: A549 NSCLC
ACHN renal = system: ACHN renal
BT-549 breast = system: BT-549 breast
CAKI-1 renal = system: CAKI-1 renal
CCRF-CEM leukemia = system: CCRF-CEM leukemia
COLO 205 colon = system: COLO 205 colon
DU-145 prostate = system: DU-145 prostate
EKVX NSCLC = system: EKVX NSCLC
HCC-2998 colon = system: HCC-2998 colon
HCT-15 colon = system: HCT-15 colon
HL-60(TB) leukemia = system: HL-60(TB) leukemia
HOP-62 NSCLC = system: HOP-62 NSCLC
HOP-92 NSCLC = system: HOP-92 NSCLC
HS 578T breast = system: HS 578T breast
HT29 colon = system: HT29 colon
IGROV1 ovarian = system: IGROV1 ovarian
K-562 leukemia = system: K-562 leukemia
KM12 colon = system: KM12 colon
M14 melanoma = system: M14 melanoma
MALME-3M melanoma = system: MALME-3M melanoma
MCF7 breast = system: MCF7 breast
MDA-MB-231 breast = system: MDA-MB-231 breast
MDA-MB-435 = system: MDA-MB-435
MOLT-4 leukemia = system: MOLT-4 leukemia
NCI-H226 lung = system: NCI-H226 lung
NCI-H23 lung = system: NCI-H23 lung
NCI-H460 lung = system: NCI-H460 lung
NCI-H522 lung = system: NCI-H522 lung
NCI/ADR-RES ovarian = system: NCI/ADR-RES ovarian
OVCAR-4 ovarian = system: OVCAR-4 ovarian
OVCAR-5 ovarian = system: OVCAR-5 ovarian
OVCAR-8 ovarian = system: OVCAR-8 ovarian
PC-3 prostate = system: PC-3 prostate
RPMI-8226 leukemia = system: RPMI-8226 leukemia
RXF 393 renal = system: RXF 393 renal
SF-268 CNS = system: SF-268 CNS
SF-295 CNS = system: SF-295 CNS
SF-539 CNS = system: SF-539 CNS
SK-MEL-2 melanoma = system: SK-MEL-2 melanoma
SK-MEL-28 melanoma = system: SK-MEL-28 melanoma
SK-MEL-5 melanoma = system: SK-MEL-5 melanoma
SK-OV-3 ovarian = system: SK-OV-3 ovarian
SN12C renal = system: SN12C renal
SNB-19 CNS = system: SNB-19 CNS
SNB-75 CNS = system: SNB-75 CNS
SW-620 colon = system: SW-620 colon
T-47D breast = system: T-47D breast
TK-10 renal = system: TK-10 renal
UACC-257 melanoma = system: UACC-257 melanoma
UACC-62 melanoma = system: UACC-62 melanoma
UO-31 renal = system: UO-31 renal

`NCCN1CCN(c2nc(-c3ccccc3)nc3nc(-c4ccccc4)oc23)CC1` was tested, and the GI50 (786-0 renal) was 1770 nM, the TGI (786-0 renal) was 3.64 µM and the GI50 (A498 renal) was 1690 nM. The TGI (A498 renal) was 3.31 µM, the GI50 (A549 NSCLC) was 1850 nM and the TGI (A549 NSCLC) was 3.91 µM. It also gave a GI50 (ACHN renal) of 1810 nM, a TGI (ACHN renal) of 3.29 µM and a GI50 (BT-549 breast) of 1680 nM. For the same compound, the TGI (BT-549 breast) was 3.31 µM, the GI50 (CAKI-1 renal) was 1640 nM and the TGI (CAKI-1 renal) was 3.17 µM. For the same compound, the GI50 (CCRF-CEM leukemia) was 919 nM, the TGI (CCRF-CEM leukemia) was 3.29 µM and the GI50 (COLO 205 colon) was 1930 nM. The TGI (COLO 205 colon) was 3.92 µM, the GI50 (DU-145 prostate) was 1920 nM and the TGI (DU-145 prostate) was 3.45 µM. For the same compound, the GI50 (EKVX NSCLC) was 1670 nM, the TGI (EKVX NSCLC) was 3.36 µM and the GI50 (HCC-2998 colon) was 1630 nM. It also gave a TGI (HCC-2998 colon) of 3.06 µM, a GI50 (HCT-15 colon) of 1490 nM and a TGI (HCT-15 colon) of 2970 nM. The GI50 (HL-60(TB) leukemia) was 1860 nM, the TGI (HL-60(TB) leukemia) was 4.48 µM and the GI50 (HOP-62 NSCLC) was 2030 nM. For the same compound, the TGI (HOP-62 NSCLC) was 4.55 µM, the GI50 (HOP-92 NSCLC) was 1350 nM and the TGI (HOP-92 NSCLC) was 2870 nM. The GI50 (HS 578T breast) was 2220 nM, the TGI (HS 578T breast) was 5.06 µM and the GI50 (HT29 colon) was 1970 nM. The TGI (HT29 colon) was 4 µM, the GI50 (IGROV1 ovarian) was 1800 nM and the TGI (IGROV1 ovarian) was 3.49 µM. It also gave a GI50 (K-562 leukemia) of 287 nM, a TGI (K-562 leukemia) of 1010 nM and a GI50 (KM12 colon) of 1860 nM. The TGI (KM12 colon) was 3.47 µM, the GI50 (M14 melanoma) was 2040 nM and the TGI (M14 melanoma) was 3.72 µM. It also gave a GI50 (MALME-3M melanoma) of 1750 nM, a TGI (MALME-3M melanoma) of 3.39 µM and a GI50 (MCF7 breast) of 1310 nM. It also gave a TGI (MCF7 breast) of 2860 nM, a GI50 (MDA-MB-231 breast) of 1830 nM and a TGI (MDA-MB-231 breast) of 3.56 µM. The GI50 (MDA-MB-435) was 1820 nM, the TGI (MDA-MB-435) was 3.32 µM and the GI50 (MOLT-4 leukemia) was 2080 nM. It also gave a TGI (MOLT-4 leukemia) of 4.62 µM, a GI50 (NCI-H226 lung) of 1970 nM and a TGI (NCI-H226 lung) of 4.13 µM. The GI50 (NCI-H23 lung) was 1690 nM, the TGI (NCI-H23 lung) was 3.21 µM and the GI50 (NCI-H460 lung) was 1940 nM. It also gave a TGI (NCI-H460 lung) of 3.69 µM, a GI50 (NCI-H522 lung) of 2160 nM and a TGI (NCI-H522 lung) of 5.05 µM. It also gave a GI50 (NCI/ADR-RES ovarian) of 1900 nM, a TGI (NCI/ADR-RES ovarian) of 3.97 µM and a GI50 (OVCAR-4 ovarian) of 2150 nM. For the same compound, the TGI (OVCAR-4 ovarian) was 4.42 µM, the GI50 (OVCAR-5 ovarian) was 1770 nM and the TGI (OVCAR-5 ovarian) was 3.26 µM. The GI50 (OVCAR-8 ovarian) was 1980 nM, the TGI (OVCAR-8 ovarian) was 4.46 µM and the GI50 (PC-3 prostate) was 1590 nM. For the same compound, the TGI (PC-3 prostate) was 3.06 µM, the GI50 (RPMI-8226 leukemia) was 1880 nM and the TGI (RPMI-8226 leukemia) was 4.62 µM. The GI50 (RXF 393 renal) was 1630 nM, the TGI (RXF 393 renal) was 3.41 µM and the GI50 (SF-268 CNS) was 1850 nM. The TGI (SF-268 CNS) was 3.96 µM, the GI50 (SF-295 CNS) was 1890 nM and the TGI (SF-295 CNS) was 3.6 µM. For the same compound, the GI50 (SF-539 CNS) was 1790 nM, the TGI (SF-539 CNS) was 3.25 µM and the GI50 (SK-MEL-2 melanoma) was 22.3 µM. The TGI (SK-MEL-2 melanoma) was 47.7 µM, the GI50 (SK-MEL-28 melanoma) was 1790 nM and the TGI (SK-MEL-28 melanoma) was 3.35 µM. For the same compound, the GI50 (SK-MEL-5 melanoma) was 1740 nM, the TGI (SK-MEL-5 melanoma) was 3.18 µM and the GI50 (SK-OV-3 ovarian) was 1910 nM. It also gave a TGI (SK-OV-3 ovarian) of 3.69 µM, a GI50 (SN12C renal) of 1800 nM and a TGI (SN12C renal) of 3.5 µM. It also gave a GI50 (SNB-19 CNS) of 1820 nM, a TGI (SNB-19 CNS) of 3.46 µM and a GI50 (SNB-75 CNS) of 1300 nM. For the same compound, the TGI (SNB-75 CNS) was 2600 nM, the GI50 (SW-620 colon) was 1710 nM and the TGI (SW-620 colon) was 3.3 µM. The GI50 (T-47D breast) was 2050 nM, the TGI (T-47D breast) was 4.66 µM and the GI50 (TK-10 renal) was 1650 nM. For the same compound, the TGI (TK-10 renal) was 3.39 µM, the GI50 (UACC-257 melanoma) was 3.34 µM and the TGI (UACC-257 melanoma) was 13.4 µM. For the same compound, the GI50 (UACC-62 melanoma) was 1850 nM, the TGI (UACC-62 melanoma) was 3.47 µM and the GI50 (UO-31 renal) was 1460 nM. The TGI (UO-31 renal) was 3.01 µM.
